Here are results for three molecules from article PMC8617031, “Development of a BCL-xL and BCL-2 dual degrader with improved anti-leukemic activity,” (Nature Communications, 2021).

“And” between values parts separate entries of the source, which are not always exact repeats. Equal values may be shown once.

Assay [1] relates to BCL-xL/PROTAC/VCB ternary complex (HiBit-BCL-xL, HaloTag-VHL). The assay is described as follows: NanoBRET intracellular ternary complex formation in 293T cells, BCL-xL. The assay is classed as cell-based, human. The note with it: for NanoBRET signal (610/450 ratio, background-subtracted), Ave, Bcl-xl: Ave of Read1 and Read2, per replicate well; for NanoBRET signal (610/450 ratio, background-subtracted), Read1, Bcl-xl / NanoBRET signal (610/450 ratio, background-subtracted), Read2, Bcl-xl: individual replicate wells. An excerpt:
(§1) Plasmids HaloTag-VHL (Cat. No. CS1679C155) and CMV HiBit (Cat. No. CS1956B03) were purchased from Promega. HiBit-BCL-xL and HiBit-BCL-2 were constructed previously. The two mutants (HiBit-BCL-xL-K157-only and HiBit-BCL-xL-K-ko) were constructed through Gibson assembly method. The primer pair (5′-[…]-3′ and 5′-[…]c[…]-3′) and the template Flag-BCL-xL-K157-only or Flag-BCL-xL-K-ko (pDL2129)[2] were used to clone the BCL-xL-K157-only-containing and BCL-xL-K-ko-containing fragments, respectively. The primer pair (5′-[…]g[…]-3′ and 5′-[…]-3′) and pBit3.1-N (Cat. No. N2361, Promega) were used to clone the vector-containing fragment. The PCR fragments were assembled using NEBuilder® HiFi DNA Assembly Master Mix (Cat. No. E2621, NEB, Ipswich, MA, USA). DNA sequences in all these plasmids were authenticated by automatic sequencing. […] After 24 h, 2 × 10^4 transfected cells were seeded into white 96-well tissue culture plates in Gibco™ Opti-MEM™ I Reduced Serum Medium, No Phenol Red (Cat. No. 11-058-021, Fisher) containing 4% FBS with or without HaloTag NanoBRET 618 Ligand (Cat. No. PRN1662, Promega) and incubated overnight at 37 °C, 5% CO2. The following day, serial diluted compounds were added into the medium and plates were incubated at 37 °C, 5% CO2, for 6 h. After treatment, NanoBRET Nano-Glo Substrate (cat. no. N1662, Promega) was added into the medium, and the contents were mixed by shaking the plate for 30 s before measuring donor and acceptor signals on Biotek plate reader. Dual-filtered luminescence was collected with a 450/50 nm bandpass filter (donor, NanoBiT-BCL-XL protein or NanoBiT-BCL-2 protein) and a 610-nm longpass filter (acceptor, HaloTag NanoBRET ligand) using an integration time of 0.5 s. mBRET ratios were calculated following the NanoBRET™ Nano-Glo® Detection System (Cat. No. N1662, Promega).
In general terms: Bioluminescence resonance energy transfer reports proximity on the nanometre scale.

The subject of assay [2] is BCL-2/PROTAC/VCB ternary complex (HiBit-BCL-2, HaloTag-VHL). The assay is described as follows: NanoBRET intracellular ternary complex formation in 293T cells, BCL-2. The note with it: for NanoBRET signal (610/450 ratio, background-subtracted), Ave, Bcl-2: Ave of Read1 and Read2, per replicate well; for NanoBRET signal (610/450 ratio, background-subtracted), Read1, Bcl-2 / NanoBRET signal (610/450 ratio, background-subtracted), Read2, Bcl-2: individual replicate wells. In kind it is cell-based, human.
From the text: as §1

`Cc1ncsc1-c1ccc(C(C)NC(=O)C2CC(O)CN2C(=O)C(NC(=O)CCCCCCCC(=O)N2CCN(CC3(C)CCC(c4ccc(Cl)cc4)=C(CN4CCN(c5ccc(C(=O)NS(=O)(=O)c6ccc(NC(CCN7CCOCC7)CSc7ccccc7)c(S(=O)(=O)C(F)(F)F)c6)cc5)CC4)C3)CC2)C(C)(C)C)cc1` (mixture of isomers) [319-C9]: in assay [1] (0.333 uM), the “NanoBRET signal (610/450 ratio, background-subtracted), Ave, Bcl-xl” value was 7.303 and 5.548 and 6.719; the “NanoBRET signal (610/450 ratio, background-subtracted), Read1, Bcl-xl” value was 7.675 and 6.0029 and 7.554; the “NanoBRET signal (610/450 ratio, background-subtracted), Read2, Bcl-xl” value was 6.932 and 5.093 and 5.885. Further, in assay [1] (1 uM), the “NanoBRET signal (610/450 ratio, background-subtracted), Ave, Bcl-xl” value was 6.725 and 7.112; the “NanoBRET signal (610/450 ratio, background-subtracted), Read1, Bcl-xl” value is 7.559 and 11.4906 and 7.902; the “NanoBRET signal (610/450 ratio, background-subtracted), Read2, Bcl-xl” value was 5.8908 and 9.929 and 6.321. Moreover, in assay [1] (3 uM), the “NanoBRET signal (610/450 ratio, background-subtracted), Ave, Bcl-xl” value is 8.449 and 8.436 and 7.804; the “NanoBRET signal (610/450 ratio, background-subtracted), Read1, Bcl-xl” value was 8.506 and 8.886 and 8.744; the “NanoBRET signal (610/450 ratio, background-subtracted), Read2, Bcl-xl” value was 8.392 and 7.986 and 6.863. For the same molecule, in assay [2] (0.333 uM), the “NanoBRET signal (610/450 ratio, background-subtracted), Ave, Bcl-2” value is 5.707 and 5.966 and 5.739; the “NanoBRET signal (610/450 ratio, background-subtracted), Read1, Bcl-2” value was 6.091 and 5.602 and 5.911; the “NanoBRET signal (610/450 ratio, background-subtracted), Read2, Bcl-2” value is 5.322 and 6.329 and 5.568. In addition, in assay [2] (1 uM), the “NanoBRET signal (610/450 ratio, background-subtracted), Ave, Bcl-2” value is 8.164 and 7.003 and 7.361; the “NanoBRET signal (610/450 ratio, background-subtracted), Read1, Bcl-2” value is 7.94 and 7.065 and 7.5271; the “NanoBRET signal (610/450 ratio, background-subtracted), Read2, Bcl-2” value was 8.387 and 6.941 and 7.196. In assay [2] (3 uM), the “NanoBRET signal (610/450 ratio, background-subtracted), Ave, Bcl-2” value is 7.788 and 8.559 and 8.325; the “NanoBRET signal (610/450 ratio, background-subtracted), Read1, Bcl-2” value is 7.715 and 8.321 and 8.876; the “NanoBRET signal (610/450 ratio, background-subtracted), Read2, Bcl-2” value was 7.862 and 8.797 and 7.774.
Turning to `Cc1ncsc1-c1ccc(C(C)NC(=O)C2CC(O)CN2C(=O)C(NC(=O)CCCCCCCCC(=O)N2CCN(CC3(C)CCC(c4ccc(Cl)cc4)=C(CN4CCN(c5ccc(C(=O)NS(=O)(=O)c6ccc(NC(CCN7CCOCC7)CSc7ccccc7)c(S(=O)(=O)C(F)(F)F)c6)cc5)CC4)C3)CC2)C(C)(C)C)cc1` (mixture of isomers) [319-C10], the “NanoBRET signal (610/450 ratio, background-subtracted), Ave, Bcl-xl” value in assay [1] (0.333 uM) was 7.322 and 6.232 and 5.134; in assay [1] (1 uM), 7.385 and 6.082 and 6.14; in assay [1] (3 uM), 5.435 and 6.539 and 6.402. The “NanoBRET signal (610/450 ratio, background-subtracted), Read1, Bcl-xl” value was 7.3 and 6.35 and 5.398 in assay [1] (0.333 uM); 7.049 and 5.821 and 5.916 in assay [1] (1 uM); 5.79 and 7.0778 and 5.898 in assay [1] (3 uM). Besides, the “NanoBRET signal (610/450 ratio, background-subtracted), Read2, Bcl-xl” value in assay [1] (0.333 uM) is 7.344 and 6.1137 and 4.87; in assay [1] (1 uM) it was 7.722 and 6.342 and 6.364; in assay [1] (3 uM) it was 5.08 and 6.001 and 6.906. The “NanoBRET signal (610/450 ratio, background-subtracted), Ave, Bcl-2” value is 5.28 and 5.803 and 5.204 in assay [2] (0.333 uM); 6.3574 and 6.177 and 5.647 in assay [2] (1 uM); 5.897 and 6.959 and 6.718 in assay [2] (3 uM). Further, the “NanoBRET signal (610/450 ratio, background-subtracted), Read1, Bcl-2” value in assay [2] (0.333 uM) is 5.21 and 6.342 and 5.353; in assay [2] (1 uM) it was 6.493 and 6.555 and 5.614; in assay [2] (3 uM), 5.772 and 7.082 and 6.87. Further, the “NanoBRET signal (610/450 ratio, background-subtracted), Read2, Bcl-2” value in assay [2] (0.333 uM) was 5.35 and 5.263 and 5.054; in assay [2] (1 uM), 6.221 and 5.799 and 5.68; in assay [2] (3 uM) it was 6.022 and 6.837 and 6.566.
On to `Cc1ncsc1-c1ccc(C(C)NC(=O)C2CC(O)CN2C(=O)C(NC(=O)CCCCCCCCCC(=O)N2CCN(CC3(C)CCC(c4ccc(Cl)cc4)=C(CN4CCN(c5ccc(C(=O)NS(=O)(=O)c6ccc(NC(CCN7CCOCC7)CSc7ccccc7)c(S(=O)(=O)C(F)(F)F)c6)cc5)CC4)C3)CC2)C(C)(C)C)cc1` (mixture of isomers) [319-C11], for which the “NanoBRET signal (610/450 ratio, background-subtracted), Ave, Bcl-xl” value in assay [1] (0.333 uM) is 5.756 and 6.621 and 6.037; in assay [1] (1 uM), 5.696 and 5.538 and 6.106; in assay [1] (3 uM), 5.386 and 5.324 and 6.583. The “NanoBRET signal (610/450 ratio, background-subtracted), Read1, Bcl-xl” value in assay [1] (0.333 uM) is 6.07 and 6.538 and 6.1116; in assay [1] (1 uM), 5.861 and 5.46 and 6.469; in assay [1] (3 uM) it was 5.512 and 5.444 and 6.844. Besides, the “NanoBRET signal (610/450 ratio, background-subtracted), Read2, Bcl-xl” value in assay [1] (0.333 uM) was 5.442 and 6.704 and 5.963; in assay [1] (1 uM), 5.532 and 5.616 and 5.743; in assay [1] (3 uM) it was 5.259 and 5.204 and 6.3216. Also, the “NanoBRET signal (610/450 ratio, background-subtracted), Ave, Bcl-2” value is 4.383 and 4.153 and 4.737 in assay [2] (0.333 uM); 4.831 and 5.865 and 5.494 in assay [2] (1 uM); 4.755 and 5.241 and 5.369 in assay [2] (3 uM). In addition, the “NanoBRET signal (610/450 ratio, background-subtracted), Read1, Bcl-2” value in assay [2] (0.333 uM) was 4.892 and 4.708 and 4.979; in assay [2] (1 uM), 4.901 and 5.9757 and 5.389; in assay [2] (3 uM) it was 5 and 5.455 and 5.5909. Moreover, the “NanoBRET signal (610/450 ratio, background-subtracted), Read2, Bcl-2” value in assay [2] (0.333 uM) is 3.874 and 3.599 and 4.495; in assay [2] (1 uM), 4.762 and 5.754 and 5.599; in assay [2] (3 uM) it was 4.5106 and 5.027 and 5.1462.
